Percent of control binding data for four compounds are collected here from publication PMC7026418, “The kinase polypharmacology landscape of clinical PARP inhibitors” (Scientific Reports, 2020).

What all share (test): biochemical
What all share (parameters): DiscoveRx KINOMEscan active site-directed competition binding; percent of control kinase bound to immobilised ligand

The target of test [1] is T1, ABL1(F317L)-nonphosphorylated (Homo sapiens, UniProt P00519, F317L).
T1 construct: nonphosphorylated

A further test concerns the target CLK3 (Homo sapiens, UniProt P49761).
The next test concerns the target T2, LKB1 (Homo sapiens, UniProt Q15831).
T2 construct: gene STK11
T2 sequence (Q15831 1-433): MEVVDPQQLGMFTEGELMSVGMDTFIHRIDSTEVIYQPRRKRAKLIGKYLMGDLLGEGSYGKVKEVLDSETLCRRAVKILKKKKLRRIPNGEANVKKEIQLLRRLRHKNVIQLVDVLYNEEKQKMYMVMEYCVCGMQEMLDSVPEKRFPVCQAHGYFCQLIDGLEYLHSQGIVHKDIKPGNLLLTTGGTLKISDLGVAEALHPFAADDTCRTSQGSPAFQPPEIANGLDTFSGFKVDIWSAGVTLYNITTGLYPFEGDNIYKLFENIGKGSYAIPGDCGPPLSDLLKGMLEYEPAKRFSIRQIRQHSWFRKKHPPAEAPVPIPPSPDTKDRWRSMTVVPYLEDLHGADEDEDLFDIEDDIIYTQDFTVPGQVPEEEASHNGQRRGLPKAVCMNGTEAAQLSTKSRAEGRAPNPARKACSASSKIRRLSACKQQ

The next test concerns the target T3, MAK (Homo sapiens, UniProt P20794).
T3 sequence (P20794 1-623): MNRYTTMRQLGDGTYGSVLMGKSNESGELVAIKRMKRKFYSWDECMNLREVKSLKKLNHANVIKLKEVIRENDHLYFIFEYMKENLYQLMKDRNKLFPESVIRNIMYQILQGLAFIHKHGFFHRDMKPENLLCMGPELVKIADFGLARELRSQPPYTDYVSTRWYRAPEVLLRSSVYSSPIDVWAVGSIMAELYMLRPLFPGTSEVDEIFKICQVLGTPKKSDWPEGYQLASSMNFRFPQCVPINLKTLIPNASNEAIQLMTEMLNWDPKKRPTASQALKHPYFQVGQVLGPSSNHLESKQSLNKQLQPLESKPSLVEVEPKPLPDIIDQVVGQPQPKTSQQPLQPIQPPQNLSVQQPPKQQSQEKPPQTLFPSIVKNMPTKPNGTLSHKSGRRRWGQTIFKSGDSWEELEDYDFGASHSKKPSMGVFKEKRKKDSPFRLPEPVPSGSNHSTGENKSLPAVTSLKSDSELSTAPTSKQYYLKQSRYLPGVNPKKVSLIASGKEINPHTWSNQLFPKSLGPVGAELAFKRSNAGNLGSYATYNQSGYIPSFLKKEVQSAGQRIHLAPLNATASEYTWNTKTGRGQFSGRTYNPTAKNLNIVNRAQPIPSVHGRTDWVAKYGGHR

A further test concerns the target T4, PCTK3 (Homo sapiens, UniProt Q07002).
T4 construct: gene CDK18

The next test has as its target T5, PIK4CB (Homo sapiens, UniProt Q9UBF8).
T5 construct: gene PI4KB

The next test deals with T6, SGK (Homo sapiens, UniProt O00141).
T6 construct: gene SGK1
T6 sequence (O00141 1-431): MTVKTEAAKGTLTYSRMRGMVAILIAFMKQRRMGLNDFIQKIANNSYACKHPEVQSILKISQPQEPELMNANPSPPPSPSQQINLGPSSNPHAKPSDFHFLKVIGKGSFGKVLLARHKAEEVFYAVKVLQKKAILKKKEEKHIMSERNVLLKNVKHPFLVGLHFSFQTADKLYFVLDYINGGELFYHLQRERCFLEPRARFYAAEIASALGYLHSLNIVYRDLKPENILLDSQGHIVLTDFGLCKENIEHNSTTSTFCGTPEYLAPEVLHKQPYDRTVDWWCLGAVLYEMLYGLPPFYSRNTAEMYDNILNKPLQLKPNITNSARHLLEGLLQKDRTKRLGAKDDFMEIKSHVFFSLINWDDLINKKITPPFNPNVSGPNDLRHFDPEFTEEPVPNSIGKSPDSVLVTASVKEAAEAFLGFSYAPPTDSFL

The next test deals with T7, TEC (Homo sapiens, UniProt P42680).
T7 sequence (P42680 1-631): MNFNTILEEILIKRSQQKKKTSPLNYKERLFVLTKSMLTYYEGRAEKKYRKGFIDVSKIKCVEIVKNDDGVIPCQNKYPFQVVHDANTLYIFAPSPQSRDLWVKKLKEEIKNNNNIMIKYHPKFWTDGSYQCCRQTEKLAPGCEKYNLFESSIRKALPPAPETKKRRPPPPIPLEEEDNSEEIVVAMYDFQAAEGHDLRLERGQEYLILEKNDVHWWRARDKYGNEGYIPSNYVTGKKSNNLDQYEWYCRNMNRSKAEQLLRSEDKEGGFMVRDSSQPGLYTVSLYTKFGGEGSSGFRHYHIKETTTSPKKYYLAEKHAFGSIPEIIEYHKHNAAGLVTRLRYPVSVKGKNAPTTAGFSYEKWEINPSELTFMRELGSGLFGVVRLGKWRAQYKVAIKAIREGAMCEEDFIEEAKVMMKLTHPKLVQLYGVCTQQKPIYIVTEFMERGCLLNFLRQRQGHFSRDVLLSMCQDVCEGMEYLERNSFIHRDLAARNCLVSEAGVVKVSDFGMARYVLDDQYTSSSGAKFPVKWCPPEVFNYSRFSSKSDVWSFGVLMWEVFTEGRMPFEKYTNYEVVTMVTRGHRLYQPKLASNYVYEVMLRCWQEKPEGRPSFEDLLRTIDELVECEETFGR

Another test concerns the target T8, TRKC (Homo sapiens, UniProt Q16288).
T8 construct: gene NTRK3

[2] abbreviates: read-out: Niraparib (MK-4827) / %Ctrl @ 10000nM.
Where [3] appears, read: read-out: Talazoparib (BMN 673) / %Ctrl @ 10000nM.
Setting [4] is: read-out: Rucaparib / %Ctrl @ 10000nM, binding competition, % of control.
[5] abbreviates: read-out: Olaparib / %Ctrl @ 10000nM.

Where two headings read alike, the source gives them in different places.

T1 sequence (P00519 whole entry F317L): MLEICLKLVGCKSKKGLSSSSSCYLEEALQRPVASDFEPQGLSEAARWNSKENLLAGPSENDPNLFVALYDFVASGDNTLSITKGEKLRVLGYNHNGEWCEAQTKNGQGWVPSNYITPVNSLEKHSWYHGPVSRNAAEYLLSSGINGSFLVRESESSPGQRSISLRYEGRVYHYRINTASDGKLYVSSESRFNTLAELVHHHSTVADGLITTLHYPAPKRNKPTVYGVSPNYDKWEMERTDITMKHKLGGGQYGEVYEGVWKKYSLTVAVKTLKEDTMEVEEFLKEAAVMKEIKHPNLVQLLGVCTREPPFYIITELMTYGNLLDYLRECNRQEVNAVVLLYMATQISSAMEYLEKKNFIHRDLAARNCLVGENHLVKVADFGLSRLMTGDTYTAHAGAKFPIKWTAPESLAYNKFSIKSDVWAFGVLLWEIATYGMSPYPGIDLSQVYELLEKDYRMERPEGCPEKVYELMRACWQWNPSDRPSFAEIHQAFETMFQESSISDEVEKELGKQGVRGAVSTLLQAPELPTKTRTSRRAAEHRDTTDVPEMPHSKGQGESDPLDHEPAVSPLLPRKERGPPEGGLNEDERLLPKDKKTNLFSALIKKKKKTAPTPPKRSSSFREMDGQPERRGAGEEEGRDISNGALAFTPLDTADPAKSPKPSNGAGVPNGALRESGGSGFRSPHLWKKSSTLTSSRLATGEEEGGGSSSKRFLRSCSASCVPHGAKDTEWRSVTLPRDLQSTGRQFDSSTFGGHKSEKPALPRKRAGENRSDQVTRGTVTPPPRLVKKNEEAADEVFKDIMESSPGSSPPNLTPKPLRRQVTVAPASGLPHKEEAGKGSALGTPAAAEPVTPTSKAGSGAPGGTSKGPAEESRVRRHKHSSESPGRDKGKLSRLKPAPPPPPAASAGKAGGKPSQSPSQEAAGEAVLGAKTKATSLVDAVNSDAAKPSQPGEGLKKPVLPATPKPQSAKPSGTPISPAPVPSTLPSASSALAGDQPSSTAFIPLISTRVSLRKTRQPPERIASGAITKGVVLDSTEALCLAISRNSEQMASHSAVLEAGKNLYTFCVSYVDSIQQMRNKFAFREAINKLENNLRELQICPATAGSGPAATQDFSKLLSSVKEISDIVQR
T8 sequence (Q16288 whole entry): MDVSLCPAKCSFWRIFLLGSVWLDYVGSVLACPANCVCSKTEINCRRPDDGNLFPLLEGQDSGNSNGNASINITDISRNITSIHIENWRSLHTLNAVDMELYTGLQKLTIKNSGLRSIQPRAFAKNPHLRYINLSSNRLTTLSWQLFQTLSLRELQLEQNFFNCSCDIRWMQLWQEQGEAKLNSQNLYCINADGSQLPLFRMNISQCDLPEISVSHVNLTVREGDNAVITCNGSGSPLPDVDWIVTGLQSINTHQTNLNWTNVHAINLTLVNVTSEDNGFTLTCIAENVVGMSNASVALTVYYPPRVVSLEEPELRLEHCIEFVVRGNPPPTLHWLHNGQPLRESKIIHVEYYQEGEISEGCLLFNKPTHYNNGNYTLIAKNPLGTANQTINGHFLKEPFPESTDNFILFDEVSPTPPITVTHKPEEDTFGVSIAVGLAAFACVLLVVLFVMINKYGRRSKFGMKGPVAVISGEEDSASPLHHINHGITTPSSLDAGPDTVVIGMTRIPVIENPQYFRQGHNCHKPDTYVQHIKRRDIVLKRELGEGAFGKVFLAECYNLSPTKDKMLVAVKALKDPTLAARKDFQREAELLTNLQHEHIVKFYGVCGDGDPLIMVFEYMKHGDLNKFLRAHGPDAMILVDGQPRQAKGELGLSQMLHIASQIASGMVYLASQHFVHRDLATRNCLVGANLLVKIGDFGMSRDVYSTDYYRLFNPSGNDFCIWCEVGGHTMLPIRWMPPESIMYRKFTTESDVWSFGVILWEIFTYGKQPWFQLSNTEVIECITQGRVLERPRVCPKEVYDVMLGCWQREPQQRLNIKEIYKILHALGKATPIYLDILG
T5 sequence (Q9UBF8 whole entry): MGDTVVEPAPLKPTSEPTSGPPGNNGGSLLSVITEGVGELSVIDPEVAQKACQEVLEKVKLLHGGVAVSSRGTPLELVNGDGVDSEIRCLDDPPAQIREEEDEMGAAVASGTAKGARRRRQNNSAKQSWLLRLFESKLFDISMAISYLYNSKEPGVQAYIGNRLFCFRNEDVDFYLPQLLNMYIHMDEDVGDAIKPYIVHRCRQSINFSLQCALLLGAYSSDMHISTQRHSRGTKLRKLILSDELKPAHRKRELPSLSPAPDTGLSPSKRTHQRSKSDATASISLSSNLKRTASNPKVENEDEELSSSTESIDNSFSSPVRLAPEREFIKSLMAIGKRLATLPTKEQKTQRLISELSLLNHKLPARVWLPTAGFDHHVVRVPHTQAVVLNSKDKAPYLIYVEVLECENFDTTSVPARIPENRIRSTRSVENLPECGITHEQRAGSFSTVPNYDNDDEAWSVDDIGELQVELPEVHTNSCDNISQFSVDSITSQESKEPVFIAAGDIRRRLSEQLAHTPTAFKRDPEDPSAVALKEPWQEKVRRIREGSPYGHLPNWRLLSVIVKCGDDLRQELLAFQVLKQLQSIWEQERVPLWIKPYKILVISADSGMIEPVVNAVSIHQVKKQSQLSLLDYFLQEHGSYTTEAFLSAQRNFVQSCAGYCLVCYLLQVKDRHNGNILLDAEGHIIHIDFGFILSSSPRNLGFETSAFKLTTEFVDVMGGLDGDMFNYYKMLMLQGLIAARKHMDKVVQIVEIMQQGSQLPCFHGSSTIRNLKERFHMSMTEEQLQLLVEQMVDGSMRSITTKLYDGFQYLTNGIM
T4 sequence (Q07002 whole entry): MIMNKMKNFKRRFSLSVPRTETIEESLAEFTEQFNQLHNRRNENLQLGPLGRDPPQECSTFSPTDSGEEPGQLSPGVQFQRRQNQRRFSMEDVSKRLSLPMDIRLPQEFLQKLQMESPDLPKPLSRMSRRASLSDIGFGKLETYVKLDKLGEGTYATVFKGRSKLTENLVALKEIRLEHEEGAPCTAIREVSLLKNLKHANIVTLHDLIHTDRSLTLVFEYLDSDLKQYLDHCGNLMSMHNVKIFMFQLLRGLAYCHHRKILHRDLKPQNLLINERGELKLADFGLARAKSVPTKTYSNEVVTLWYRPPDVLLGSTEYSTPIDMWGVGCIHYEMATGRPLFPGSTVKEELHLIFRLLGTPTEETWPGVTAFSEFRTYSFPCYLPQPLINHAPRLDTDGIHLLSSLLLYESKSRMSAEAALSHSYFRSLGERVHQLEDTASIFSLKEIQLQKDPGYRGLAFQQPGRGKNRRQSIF
Chain of CLK3 (P49761 whole entry): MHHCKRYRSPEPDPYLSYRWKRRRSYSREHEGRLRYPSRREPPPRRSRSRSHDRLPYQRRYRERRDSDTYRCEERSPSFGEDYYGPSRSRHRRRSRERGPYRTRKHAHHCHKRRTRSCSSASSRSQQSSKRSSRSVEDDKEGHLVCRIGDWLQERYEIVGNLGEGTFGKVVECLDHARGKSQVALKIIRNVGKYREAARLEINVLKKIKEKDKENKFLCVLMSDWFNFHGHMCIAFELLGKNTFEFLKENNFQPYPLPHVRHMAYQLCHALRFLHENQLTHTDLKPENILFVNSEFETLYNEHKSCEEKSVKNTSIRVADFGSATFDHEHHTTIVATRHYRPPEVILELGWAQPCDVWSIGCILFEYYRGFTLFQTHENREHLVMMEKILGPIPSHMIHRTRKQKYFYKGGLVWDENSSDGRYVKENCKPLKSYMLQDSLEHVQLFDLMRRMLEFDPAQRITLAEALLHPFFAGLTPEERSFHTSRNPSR

On to `NC(=O)c1cccc2cn(-c3ccc([C@@H]4CCCNC4)cc3)nc12` [Niraparib], for which the percent of control binding at 10 µM in test [1] (setting [2]) worked out at 96%; on CLK3 (setting [2]), 100%; on LKB1 (setting [2]), 100%; on MAK (setting [2]), 56%; at PCTK3 (setting [2]), 70%; at PIK4CB (setting [2]), 94%. Also, the results for the percent of control binding at 10 µM on SGK (setting [2]), at TEC (setting [2]) and at TRKC (setting [2]) were 89%, 76% and 95%, respectively.

With `Cn1ncnc1[C@H]1c2n[nH]c(=O)c3cc(F)cc(c23)N[C@@H]1c1ccc(F)cc1` [Talazoparib], the percent of control binding at 10 µM in test [1] (setting [3]) is 58%; on CLK3 (setting [3]), 17%; at LKB1 (setting [3]), 93%; on MAK (setting [3]) it was 93%; on PCTK3 (setting [3]), 99%; at PIK4CB (setting [3]), 81%. Moreover, the percent of control binding at 10 µM came out at 92% at SGK (setting [3]), 92% on TEC (setting [3]) and 100% at TRKC (setting [3]).

Consider `CNCc1ccc(-c2[nH]c3cc(F)cc4c3c2CCNC4=O)cc1` [Rucaparib], for which the percent of control binding at 10 µM in test [1] (setting [4]) worked out at 69%; at CLK3 (setting [4]), 75%; at LKB1 (setting [4]), 91%; on MAK (setting [4]) it was 81%; on PCTK3 (setting [4]), 69%; at PIK4CB (setting [4]), 78%. Also, the percent of control binding at 10 µM at SGK (setting [4]) is 61%; at TEC (setting [4]), 100%; on TRKC (setting [4]), 88%.

As to `O=C(c1cc(Cc2n[nH]c(=O)c3ccccc23)ccc1F)N1CCN(C(=O)C2CC2)CC1` [Olaparib], the percent of control binding at 10 µM in test [1] (setting [5]) amounted to 81%; at CLK3 (setting [5]), 89%; on LKB1 (setting [5]), 90%; at MAK (setting [5]), 77%; on PCTK3 (setting [5]) it was 100%; at PIK4CB (setting [5]) it was 94%. The percent of control binding at 10 µM is 97% on SGK (setting [5]), 100% on TEC (setting [5]) and 92% at TRKC (setting [5]).
